Assay results as given in US5106857A, “N-(1-methyl-3-pyrrolidinyl)-1-(phenylmethyl)-1H-benzimidazol-2-amine and analogs as antiarrhythmic and muscle relaxing agents” (A. H. Robins Company, Incorporated, priority 1991, dated 1992).

Legend:
[1] = test system: cardiac arrhythmias (coronary artery occlusion); test: Coronary artery ligation induced arrhythmias (conscious dogs); type: in vivo, dog (adult mongrel); details: for Antiarrhythmic Activity: Number of dogs in which drug is considered active/number treated: active = normal sinus rhythm within 2 hours
Procedure: Cardiac arrhythmias in dogs are induced by surgically restricting blood flow in a coronary artery. The test compound is administered intravenously and the heart rate and number and percentage of ectopic beats recorded at 15 minute intervals.
Adult mongrel dogs which are in the conscious state were used for the test and cardiac arrhythmias were induced by prior (22-24 hr) surgical preparation in which blood flow through a coronary artery was occluded by use of a constrictor device as reported by Smith et al, 1973. A Grass Model 79 Polygraph was used for recording the electrocardiogram (Grass 7P4 Preamplifier).
The test compound was administered by infusion (Harvard Model 942 Infusion Pump) into a saphenous vein to the test group of dogs at a rate of 0.5 mg/kg/min. Concentration of compound was adjusted according to the weight of the dog to allow a volume of infusion of 0.5 ml/min. Following the administration of the test compound, the heart rate, number of ectopic beats (ectopic beats/HR×1000) were recorded at 15 min intervals. The compound was considered active if it abolished the ectopic ventricular frequency and caused a return to normal sinus rhythm within 2 hours of administration. Cardiac arrhythmias produced by modification of method of Harris, 1950, Circulation 1, 1318, as reported by Smith et al, 1973, Pharmacologist 15, 192.

[2] = test system: morphine-induced Straub Tail; test: Morphine-induced Straub Tail in Mice Test (muscle relaxant); type: in vivo; details: scored 30 min after test compound; for ED50: Mus musculus, 0.5 h, IP, morphine sulfate 60 mg/kg s.c. 15 min later, read-out: Straub Tail Inhibition ED50
Procedure: Administration of morphine sulfate to a mouse causes the tail to become elevated perpendicular to the body. […] The test procedure relied on to indicate positive muscle relaxant activity is the morphine-induced Straub Tail in Mice Test described by G. D. Novak in DRUG DEVELOPMENT RESEARCH (1982) 2: 383-386, except 8 animals per group were used per test rather than 10. The test is summarized as follows: The test drug, reference drug, and control articles to be administered are prepared in saline, 0.5% aqueous methylcellulose suspension or other, depending on solubility, in such concentration that the volume administered is 10 ml/kg. The initial screening dose of the test drug is usually 100 mg/kg. Groups of 8 mice are given an IP dose of a compound or vehicle prepared as described above. After 15 min, mice are administered morphine sulfate, 60 mg/kg in saline, subcutaneously. Fifteen minutes after administration of morphine (i.e., 30 min after test compound administration), mice were scored for presence of Straub Tail defined as an elevation of the tail at least 90 degrees from the horizontal. An ED50 value may be determined from at least three logarithmically spaced doses by the method of Litchfield and Wilcoxon (1949), J. PHARMACOL. EXP. THER. 96: 99-113.

With `CN1CCC(Nc2nc3ccccc3n2Cc2ccccc2)CC1` [Compound 4, N-(1-Methyl-4-piperidinyl)-1-(phenylmethyl)-1H-benzimidazol-2-amine] the “Antiarrhythmic Activity: Number of dogs in which drug is considered active/number treated” value ([1]; dose 9 mg/kg IV) was 2/6 and the “Straub Tail Inhibition %” value ([2]; dose 100 mg/kg IP) was -25%.

With `CN1CCC(Nc2nc3ccccc3n2Cc2ccccc2)C1` (stereo not shown) [Compound 3, N-(1-Methyl-3-pyrrolidinyl)-1-(phenylmethyl)-1H-benzimidazol-2-amine] the “Antiarrhythmic Activity: Number of dogs in which drug is considered active/number treated” value ([1]; dose 7 mg/kg IV) was 7/8 and the ED50 [2] was 21 mg/kg.

`CCn1c(NC2CCN(C)C2)nc2ccccc21` (stereo not shown) [Compound 2, 1-Ethyl-N-(1-methyl-3-pyrrolidinyl)-1H-benzimidazol-2-amine] was tested, and the “Antiarrhythmic Activity” value ([1]; dose 7 mg/kg IV) was “partially active (Reduces ectopic beats from 50-99%)”.

In the case of `CCN1CCC(Nc2nc3ccccc3n2CC)C1` (stereo not shown) [Compound 1, 1-Ethyl-N-(1-ethyl-3-pyrrolidinyl)-1H-benzimidazol-2-amine], the “Antiarrhythmic Activity: Number of dogs in which drug is considered active/number treated” value ([1]; dose 5 mg/kg IV) is reported as 1/2 and the ED50 [2] is reported as 36 mg/kg.
